Consider six compounds from US20230257396A1, “MACROCYCLES AND THEIR USE” (BLOSSOMHILL THERAPEUTICS, INC., priority 2020, published 2023).

The structures appear in SMILES notation. Substitutions are numbered along the chain they refer to.

Test in all cases: KINOMEscan kinase binding assay (Eurofins/DiscoveRx), % Ctrl
What all share (details): 1 μM

Test [1] has as its target T1, kinases (Homo sapiens, UniProt P09619).
T1 construct: purchased Eurofins/DiscoveRx; host or cells: E. coli BL21-derived host (T7 phage display) for most kinases; HEK-293 for the rest
An outline of the steps: (§1)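 Competition binding: DNA- or phage-tagged kinases (T7 phage in E. coli BL21, or HEK-293-expressed) with immobilized biotinylated ligand beads and test compound, 1 h at room temperature. Bead-bound kinase eluted and quantified by qPCR; % Ctrl = (compound − positive control)/(negative control − positive control) ×100 at a single compound concentration.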

Test [2] addresses T2, kinases (Homo sapiens, UniProt P00533, T790M).
T2 construct: purchased Eurofins/DiscoveRx; host or cells: E. coli BL21-derived host (T7 phage display) for most kinases; HEK-293 for the rest
An outline of the steps: as §1

Test [3] addresses T3, kinases (Homo sapiens, UniProt P10721, D816H).
T3 construct: purchased Eurofins/DiscoveRx; host or cells: E. coli BL21-derived host (T7 phage display) for most kinases; HEK-293 for the rest
The method in brief: as §1

Test [4] has as its target T4, kinases (Homo sapiens, UniProt P36888, D835H).
T4 construct: purchased Eurofins/DiscoveRx; host or cells: E. coli BL21-derived host (T7 phage display) for most kinases; HEK-293 for the rest
T4 sequence (P36888 27-993 D835H): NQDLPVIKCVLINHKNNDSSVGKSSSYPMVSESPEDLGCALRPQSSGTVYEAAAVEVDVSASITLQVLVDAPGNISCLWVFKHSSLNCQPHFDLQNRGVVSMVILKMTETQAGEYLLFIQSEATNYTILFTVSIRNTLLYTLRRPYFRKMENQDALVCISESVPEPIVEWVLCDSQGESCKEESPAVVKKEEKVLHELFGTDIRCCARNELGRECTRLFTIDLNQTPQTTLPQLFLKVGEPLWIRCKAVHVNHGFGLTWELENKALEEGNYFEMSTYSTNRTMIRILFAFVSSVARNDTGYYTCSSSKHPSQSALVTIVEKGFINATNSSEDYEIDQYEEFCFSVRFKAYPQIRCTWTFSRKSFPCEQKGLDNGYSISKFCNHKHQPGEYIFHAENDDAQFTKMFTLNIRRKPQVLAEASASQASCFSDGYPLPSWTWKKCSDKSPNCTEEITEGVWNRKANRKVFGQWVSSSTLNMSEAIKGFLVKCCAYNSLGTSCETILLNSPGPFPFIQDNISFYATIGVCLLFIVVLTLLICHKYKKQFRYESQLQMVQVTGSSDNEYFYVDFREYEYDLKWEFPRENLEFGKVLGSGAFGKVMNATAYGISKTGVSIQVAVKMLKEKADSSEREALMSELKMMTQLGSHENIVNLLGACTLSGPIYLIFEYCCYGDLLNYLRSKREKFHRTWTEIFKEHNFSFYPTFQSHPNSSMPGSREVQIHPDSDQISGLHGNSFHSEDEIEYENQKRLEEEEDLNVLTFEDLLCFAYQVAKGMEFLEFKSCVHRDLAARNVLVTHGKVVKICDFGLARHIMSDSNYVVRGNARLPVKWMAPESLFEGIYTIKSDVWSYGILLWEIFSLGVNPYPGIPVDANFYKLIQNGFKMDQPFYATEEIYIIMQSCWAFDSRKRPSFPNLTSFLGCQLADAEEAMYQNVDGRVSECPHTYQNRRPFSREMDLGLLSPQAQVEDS
The method in brief:
as §1

The target of test [5] is T5, kinases (Homo sapiens, UniProt P36888, D835V).
T5 construct: purchased Eurofins/DiscoveRx; host or cells: E. coli BL21-derived host (T7 phage display) for most kinases; HEK-293 for the rest
T5 sequence (P36888 27-993 D835V): T4 sequence (P36888 27-993 D835H) with H809V
The method in brief:
as §1

In test [6] the target is T6, kinases (Homo sapiens, UniProt P00533, DEL752-759).
T6 construct: purchased Eurofins/DiscoveRx; host or cells: E. coli BL21-derived host (T7 phage display) for most kinases; HEK-293 for the rest
The method in brief: as §1

T3 sequence (P10721 26-976 D816H): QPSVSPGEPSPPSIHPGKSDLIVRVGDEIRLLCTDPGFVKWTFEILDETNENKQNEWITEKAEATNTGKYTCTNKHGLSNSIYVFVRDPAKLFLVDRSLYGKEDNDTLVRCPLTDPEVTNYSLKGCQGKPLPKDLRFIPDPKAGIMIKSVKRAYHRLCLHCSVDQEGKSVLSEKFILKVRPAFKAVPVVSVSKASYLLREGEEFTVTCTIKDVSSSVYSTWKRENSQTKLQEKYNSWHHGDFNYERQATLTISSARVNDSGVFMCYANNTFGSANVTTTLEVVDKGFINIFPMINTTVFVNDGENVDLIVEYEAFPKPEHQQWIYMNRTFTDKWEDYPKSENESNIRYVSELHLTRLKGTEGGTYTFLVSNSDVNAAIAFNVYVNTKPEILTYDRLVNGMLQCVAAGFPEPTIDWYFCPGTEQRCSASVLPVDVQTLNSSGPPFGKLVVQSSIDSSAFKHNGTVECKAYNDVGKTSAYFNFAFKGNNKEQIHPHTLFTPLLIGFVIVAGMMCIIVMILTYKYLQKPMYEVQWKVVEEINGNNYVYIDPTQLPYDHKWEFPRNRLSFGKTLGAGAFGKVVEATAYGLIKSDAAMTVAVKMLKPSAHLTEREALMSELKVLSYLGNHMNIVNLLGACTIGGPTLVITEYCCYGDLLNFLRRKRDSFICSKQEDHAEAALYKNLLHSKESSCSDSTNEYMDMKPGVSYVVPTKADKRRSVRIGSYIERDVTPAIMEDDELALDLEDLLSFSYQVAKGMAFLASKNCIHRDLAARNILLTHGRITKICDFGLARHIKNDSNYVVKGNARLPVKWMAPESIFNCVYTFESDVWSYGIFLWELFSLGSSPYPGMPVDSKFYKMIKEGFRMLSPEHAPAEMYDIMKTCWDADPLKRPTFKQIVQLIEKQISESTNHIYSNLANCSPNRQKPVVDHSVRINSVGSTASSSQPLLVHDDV
T1 sequence (P09619 33-1106): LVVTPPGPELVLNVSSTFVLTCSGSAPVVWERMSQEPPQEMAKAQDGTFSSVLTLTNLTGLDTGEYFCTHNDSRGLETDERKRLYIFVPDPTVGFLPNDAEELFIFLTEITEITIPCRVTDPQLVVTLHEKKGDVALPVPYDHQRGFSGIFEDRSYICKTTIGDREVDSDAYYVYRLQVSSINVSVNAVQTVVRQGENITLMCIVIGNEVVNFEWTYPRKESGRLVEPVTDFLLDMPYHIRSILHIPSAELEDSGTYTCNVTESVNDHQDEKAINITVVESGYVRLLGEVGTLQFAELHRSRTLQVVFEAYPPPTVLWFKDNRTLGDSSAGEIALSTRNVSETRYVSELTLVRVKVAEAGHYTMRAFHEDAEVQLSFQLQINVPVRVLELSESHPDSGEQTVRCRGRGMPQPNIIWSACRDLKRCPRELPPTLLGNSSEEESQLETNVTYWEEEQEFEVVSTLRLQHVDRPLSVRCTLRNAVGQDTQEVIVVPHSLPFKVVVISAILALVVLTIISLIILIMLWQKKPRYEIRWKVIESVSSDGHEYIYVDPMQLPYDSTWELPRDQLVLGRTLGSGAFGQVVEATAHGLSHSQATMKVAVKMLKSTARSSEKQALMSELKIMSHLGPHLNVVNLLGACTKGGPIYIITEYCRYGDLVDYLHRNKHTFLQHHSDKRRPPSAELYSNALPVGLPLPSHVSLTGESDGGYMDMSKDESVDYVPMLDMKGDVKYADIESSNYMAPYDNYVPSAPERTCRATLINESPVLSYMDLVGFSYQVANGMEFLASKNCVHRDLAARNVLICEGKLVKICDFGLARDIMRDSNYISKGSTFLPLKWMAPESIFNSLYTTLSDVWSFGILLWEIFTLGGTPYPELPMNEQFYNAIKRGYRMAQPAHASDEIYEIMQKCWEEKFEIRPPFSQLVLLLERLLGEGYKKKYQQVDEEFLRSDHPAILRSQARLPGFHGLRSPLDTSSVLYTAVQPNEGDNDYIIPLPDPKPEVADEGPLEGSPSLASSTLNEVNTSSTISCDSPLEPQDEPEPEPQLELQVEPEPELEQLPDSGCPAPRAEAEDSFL

For the compound `Cc1cc2c([nH]1)/C=C1\C(=O)Nc3cnc(nc31)N(C)CCCOCCN(C)C2=O` [Ex.71, [17a(18)Z]-2,5,12-trimethyl-6,7,9,10,11,12-hexahydro-1H-13,15-(azenometheno)dipyrrolo[3,2-f:3′,4′-i][1,4,11,13]oxatriazacyclohexadecine-4,17(5H,16H)-dione], the “% Ctrl, PDGFRB” value in test [1] (PDGFRB) worked out at 98 % Ctrl. The “% Ctrl, EGFR(T790M)” value in test [2] (EGFR(T790M)) came out at 100 % Ctrl. Further, the “% Ctrl, KIT(D816H)” value in test [3] (KIT(D816H)) was found to be 100 % Ctrl. Also, in test [4] (FLT3(D835H)), the “% Ctrl, FLT3(D835H)” value was 99 % Ctrl. Further, in test [5] (FLT3(D835V)), the “% Ctrl, FLT3(D835V)” value was found to be 100 % Ctrl. Also, the “% Ctrl, EGFR(S752-I759del)” value in test [6] (EGFR(S752-I759del)) stood at 74 % Ctrl.
For the compound `CNC(=O)[C@H]1CN(C)C(=O)c2cc(C)[nH]c2/C=C2\C(=O)Nc3cc(Cl)c(cc32)OCCO1` [Ex. 135, [7R,16a(17)Z]-19-chloro-N,2,5-trimethyl-4,16-dioxo-4,5,6,7,9,10,15,16-octahydro-1H-12,14-(ethanediylidene)dipyrrolo[3,2-i:3′,4′-l][1,4,7]dioxazacyclopentadecine-7-carboxamide], in test [1] (PDGFRB), the “% Ctrl, PDGFRB” value is reported as 80 % Ctrl. Also, the “% Ctrl, EGFR(T790M)” value in test [2] (EGFR(T790M)) was 94 % Ctrl. Further, the “% Ctrl, KIT(D816H)” value in test [3] (KIT(D816H)) turned out to be 80 % Ctrl. For the same compound, the “% Ctrl, FLT3(D835H)” value in test [4] (FLT3(D835H)) came out at 37 % Ctrl. Also, the “% Ctrl, FLT3(D835V)” value in test [5] (FLT3(D835V)) came to 6 % Ctrl. In addition, the “% Ctrl, EGFR(S752-I759del)” value in test [6] (EGFR(S752-I759del)) is on record as 92 % Ctrl.
For the compound `Cc1cc2c([nH]1)/C=C1\C(=O)Nc3ccc(cc31)-c1cnn(C)c1COCCN(C)C2=O` [Ex. 124, [3a(4)Z]-6,9,14-trimethyl-10,11,13,14-tetrahydro-2H-1,17-(ethanediylidene)pyrazolo[4,3-m]dipyrrolo[3,2-f:3′,4′-i][1,4]oxazacyclopentadecine-3,8(5H,9H)-dione], the “% Ctrl, PDGFRB” value in test [1] (PDGFRB) is 0.35 % Ctrl. Besides, the “% Ctrl, EGFR(T790M)” value in test [2] (EGFR(T790M)) worked out at 8.5 % Ctrl. Further, the “% Ctrl, KIT(D816H)” value in test [3] (KIT(D816H)) was 0.4 % Ctrl. In test [4] (FLT3(D835H)), the “% Ctrl, FLT3(D835H)” value was found to be 0.05 % Ctrl. Also, the “% Ctrl, FLT3(D835V)” value in test [5] (FLT3(D835V)) is given as 0 % Ctrl. In addition, the “% Ctrl, EGFR(S752-I759del)” value in test [6] (EGFR(S752-I759del)) was determined as 68 % Ctrl.
Regarding `Cc1cc2c([nH]1)/C=C1\C(=O)Nc3cc(Cl)c(cc31)OCCO[C@@H](C(=O)NC1CCNCC1)CN(C)C2=O` [Ex. 134, [7R,16a(17)Z]-19-chloro-2,5-dimethyl-4,16-dioxo-N-(piperidin-4-yl)-4,5,6,7,9,10,15,16-octahydro-1H-12,14-(ethaneidylidene)dipyrrolo[3,2-i:3′,4′-l][1,4,7]dioxazacyclopentadecine-7-carboxamide], the “% Ctrl, PDGFRB” value in test [1] (PDGFRB) is listed as 66 % Ctrl. For the same compound, the “% Ctrl, EGFR(T790M)” value in test [2] (EGFR(T790M)) was determined as 92 % Ctrl. Besides, in test [3] (KIT(D816H)), the “% Ctrl, KIT(D816H)” value stood at 56 % Ctrl. Besides, the “% Ctrl, FLT3(D835H)” value in test [4] (FLT3(D835H)) came out at 35 % Ctrl. The “% Ctrl, FLT3(D835V)” value in test [5] (FLT3(D835V)) came out at 3.9 % Ctrl. Besides, the “% Ctrl, EGFR(S752-I759del)” value in test [6] (EGFR(S752-I759del)) was found to be 88 % Ctrl.
For the compound `Cc1cc2c([nH]1)/C=C1\C(=O)Nc3ccc(cc31)-c1c(noc1C(C)C)COCCN(C)C2=O` [Ex. 161, [3a(4)Z]-9-methyl-16-(propan-2-yl)-10,11-dihydro-2H,13H-1,17-(ethanediylidene)[1,2]oxazolo[4,3-m]dipyrrolo[3,2-f:3′,4′-i][1,4]oxazacyclopentadecine-3,8(5H,9H)-dione], the “% Ctrl, PDGFRB” value in test [1] (target PDGFRB) turned out to be 98 % Ctrl. Moreover, the “% Ctrl, EGFR(T790M)” value in test [2] (target EGFR(T790M)) stood at 100 % Ctrl. Moreover, the “% Ctrl, KIT(D816H)” value in test [3] (target KIT(D816H)) was 100 % Ctrl. Also, in test [4] (target FLT3(D835H)), the “% Ctrl, FLT3(D835H)” value stood at 48 % Ctrl. Also, the “% Ctrl, FLT3(D835V)” value in test [5] (target FLT3(D835V)) stood at 23 % Ctrl. Besides, the “% Ctrl, EGFR(S752-I759del)” value in test [6] (target EGFR(S752-I759del)) is given as 81 % Ctrl.
As for `Cc1cc2c([nH]1)/C=C1\C(=O)Nc3ccc(cc31)-c1ccnn1CCNCCNC2=O` [Ex. 43, [19a(20)Z]-2-methyl-5,6,7,8,9,10-hexahydro-15,17-(ethanediylidene)pyrazolo[1,5-g]dipyrrolo[3,4-k:2′,3′-n][1,4,7]triazacyclohexadecine-4,19(1H,18H)-dione], in test [1] (PDGFRB), the “% Ctrl, PDGFRB” value came to 98 % Ctrl. In test [2] (EGFR(T790M)), the “% Ctrl, EGFR(T790M)” value is 100 % Ctrl. The “% Ctrl, KIT(D816H)” value in test [3] (KIT(D816H)) was 65 % Ctrl. In addition, the “% Ctrl, FLT3(D835H)” value in test [4] (FLT3(D835H)) is 93 % Ctrl. Moreover, the “% Ctrl, FLT3(D835V)” value in test [5] (FLT3(D835V)) was 27 % Ctrl. Also, the “% Ctrl, EGFR(S752-I759del)” value in test [6] (EGFR(S752-I759del)) worked out at 91 % Ctrl.
